Patent publication US11072637B2, “Walnut oligopeptide powder, preparation method and application thereof” (Sinphar Tian-Li (Hangzhou) Pharmacy Company Limited, priority 2016, dated 2021)
Where “and” joins values, the source holds several entries; their conditions need not be identical. Equal values may be shown once. Non-standard residues stand in square brackets, D forms with d. Residues, ends and D or L forms follow the SMILES beside them. pGlu = O=C1CC[C@@H](C(=O)O)N1; Thz = O=C(O)[C@@H]1CSCN1

What was measured:
zebra fish macrophages [1] = assay: Promotion of phagocytosis function of zebra fish macrophages (ink model); format: in vivo; details: 200 μg/mL
Method: 2. Promotion Effect of Walnut Oligopeptide Powder on Phagocytosis Function of Zebra Fish Macrophages
Zebra fish macrophage promoting model inhibition model was built by intravenous injection of ink in 2 days (2 dpf) zebra fishes after fertilization. respectively dissolved in fish water to give the walnut oligopeptide and the positive drug pidotimod, […], and the concentration of the pidotimod is 200 […]. Meanwhile, model control group and normal control group were set, in which 30 tail zebra fishes are in each experimental group, and each group was placed in a 28 L incubator to be cultured. When processing to 3 dpf, the zebra fishes in each experiment group were subjected to neutral red staining, after dyeing for 4 hours, 10-tail zebra fishes from each experimental group were selected to be observed under microscope randomly, and photos were taken and stored; image analysis for the ink signal of the zebra fish macrophages was carried out by image processing software. The improvement effect of four test samples on phagocytosis function of the zebra fish macrophages was quantitatively evaluated.

[2] = test system: central nervous system of zebra fishes; assay: Protection of zebra fish central nervous system (mycophenolate-induced injury); format: in vivo; details: 154 μg/mL
Method: Protection Effect of the Walnut Oligopeptide Powder on the Central Nervous Centrum of Zebra Fishes 180 wild type AB strain zebra fishes after fertilization in […] (1 dpf) were selected randomly and were arranged in six-well plate, and 30 tail zebra fishes were treated in each hole (the experiment group), and central injury of the zebra fishes was induced by the mycophenolate mophol ester. […] After the oligopeptide was subjected to co-treatment for 24 hours with the mycophenolate, the acridine orange was used for dyeing, after dyeing, 10 tail zebra fishes from each experimental group were selected randomly to photograph under fluorescence microscope and collect data, analyzing and counting the fluorescent intensity of the apoptotic cells of central nervous system (brain and spinal cord) of the zebra fishes; the protective effect of the walnut oligopeptide powder on the central nervous system of zebra fishes was evaluated according to the fluorescence intensity.

zebra fish macrophages [3] = assay: Improvement of zebra fish macrophage inhibition (vinorelbine model); format: in vivo; details: for number of macrophages of the zebra fish head, Mean ± SD(count): 1.9 μg/mL in fish water, model control 15, normal control 27, n = 10
Method: Improvement Effect of Walnut Oligopeptide Powder on Inhibition of Zebra Fish Macrophages […] Meanwhile, model control group and normal control group were set (no treatment was carried out), in which 30 tail zebra fishes were in each experimental group, and each group was placed in a 28 L incubator to be cultured. When processing to 3 dpf, the zebra fishes in each experiment group were subjected to neutral red staining. After dyeing for 4 hours, 10-tail zebra fishes from each experimental group were selected to be observed under microscope randomly, and photos were taken and stored. Image analysis for the number of the zebra fish macrophages was carried out by image processing software. The improvement effect of the walnut oligopeptide powder on inhibition of the zebra fish macrophage was quantitatively evaluated.

[4] = test system: Scopolamine-Induced Memory Acquisition Impairment of the Mice; assay: Scopolamine-induced memory acquisition impairment of mice (jumping table); format: in vivo, ICR mouse; details: scopolamine model, 30 mg/kg
Method: (§1) 1. Test Animal The test animal was a cleaning-grade ICR mouse with 18-22 g in weight, the three batches of 300 were provided by Nantong University. Laboratory animal production license is SCXK (Su) 2014-0001, fed by conventional mouse feedstuff, and free drinking water. Before the experiment they were fed in a quiet environment for 1 week, freely-feeding and drinking water, and keeping the room temperature (22±1° C.) and natural day and night rhythm illumination. 2.1 Influence on Scopolamine-Induced Memory Acquisition Impairment of Mouse The mouse was randomly grouped and low, medium and high dosage groups (30, 100 and 300 mg/kg) of walnut oligopeptide (preparation example 1) was provided, the blank group and the model group were given equal-volume distilled water respectively, and 30 mg/kg of nimodipine was administrated in positive control group, respectively filling the stomach for one time every day in each group, and continuously feeding the medicines for 7 days. Jump-table training. […] During testing, the mouse were placed on the jumping table, and time was counted at the same time. The first jumping time of the mouse was recorded, and it was an electric shock incubation period (namely, an error incubation period) and recording the times of jumping within 5 minutes (i.e., the times of errors), was recorded as observation index.

[5] = test system: Sodium Nitrite-Induced Memory Consolidation Disorder of Mice; assay: Sodium nitrite-induced memory consolidation disorder of mice (jumping table); format: in vivo, ICR mouse; details: sodium nitrite model, 30 mg/kg
Method: as §1, with “The” for “1. Test Animal The”, “illumination.” for “illumination. 2.1 Influence on Scopolamine-Induced Memory Acquisition Impairment of Mouse”, “index. […]” for “index.”

[6] = test system: 40% Ethanol-Induced Memory Reproduction Disorder of Mice; assay: 40% ethanol-induced memory reproduction disorder of mice (jumping table); format: in vivo, ICR mouse; details: 40% ethanol model, 30 mg/kg
Method: as §1, with “The” for “1. Test Animal The”, “illumination.” for “illumination. 2.1 Influence on Scopolamine-Induced Memory Acquisition Impairment of Mouse”, “index. […]” for “index.”

O=C1CC[C@@H](C(=O)N2CSC[C@H]2C(=O)O)N1 [pidotimod] ([pGlu]-[Thz]-OH)
Promotion Effect (time) (zebra fish macrophages [1]; compared with model control group): 2.3 time
number of macrophages of the phagocytosis ink, Mean ± SD(count) (zebra fish macrophages [1]; model control 1.5, n = 10): 3.5 count and 3.5 ± 1.8 count

N[C@@H](CCC(=O)N[C@@H](CS)C(=O)NCC(=O)O)C(=O)O [GSH, glutathione]
Protection Effect on Central Nervous System (%) [2]: 92%
fluorescence intensity of central apoptosis cell (pixel)(mean ± SE) ([2]; 24 hours co-treatment with mycophenolate, model 565783, normal 161976): 190000 pixel and 193900 ± 8302 pixel

COc1ccc2cc3[n+](cc2c1OC)CCc1cc2c(cc1-3)OCO2 [Berberine, berberine]
number of macrophages of the zebra fish head, Mean ± SD(count) (zebra fish macrophages [3]): 20 ± 4 count
number of macrophages of the zebra fish head, Mean ± SD(count) (zebra fish macrophages [3]; listed as berberine): 20 count
Improvement Effect (%) (zebra fish macrophages [3]; 1.9 μg/mL, compared with model control group): 41.67%

COCCOC(=O)C1=C(C)NC(C)=C(C(=O)OC(C)C)C1c1cccc([N+](=O)[O-])c1 (stereo not shown) [Nimodipine, nimodipine]
Incubation Period ([4]; gavage once daily 7 days, n = 10, model 14.6): 35.9 ± 30.3 s
Times of Error (n) ([4]; within 5 minutes, model 3.5): 2.0 ± 1.4 n
Incubation Period ([5]; gavage once daily 7 days, n = 10, model 94.7): 237.7 ± 79.7 s
Times of Error (n) ([5]; within 5 minutes, model 3.6): 1.0 ± 1.2 n
Incubation Period ([6]; gavage once daily 7 days, n = 8, model 46.3): 99.6 ± 98.7 s
Times of Error (n) ([6]; within 5 minutes, model 5.7): 2.5 ± 1.4 n
